Laboratory results published in EP1661584A1, “Use of conjugates of amatoxins and phallotoxins with macromolecules for cancer and inflammation therapy” (Faulstich, Heinz, Dr., priority 2004, dated 2006).

Key:
[1] = target: DNA-dependent RNA polymerase II (Homo sapiens, UniProt P24928+P30876); details: complex between amanitin and RNA polymerase II; cited from earlier work
actin = actin binding
From the text: In all cases the macromolecular conjugates were distinctly more toxic to tumor cells (>1000) than the native toxins. Of high importance for this cytotoxic activity is the presence of a disulfide group in the linker moiety between toxin and macromolecule. After uptake into the tumor cells the disulfide group is cleaved by reduction releasing thiopropionyl-aminophalloidin or thiopropionyl-aminophallacidin into cytoplasm.

Row | Substance | Kd [1] | actin binding compared with phalloidin (actin)
1 | amanitin | 3 nM | 
2 | thiopropionyl-aminophalloidin |  | as tightly as phalloidin itself
